In ChEMBL document CHEMBL1240438, “Identification of potent virtual leads to design novel indoleamine 2,3-dioxygenase inhibitors: pharmacophore modeling and molecular docking studies” (Eur J Med Chem, 2010):

What follows are compounds tested against Indoleamine 2,3-dioxygenase 1 (Homo sapiens, UniProt P14902) (assay: Inhibition of 2,3 dioxygenase).
Sequence of Indoleamine 2,3-dioxygenase 1 (P14902 whole entry): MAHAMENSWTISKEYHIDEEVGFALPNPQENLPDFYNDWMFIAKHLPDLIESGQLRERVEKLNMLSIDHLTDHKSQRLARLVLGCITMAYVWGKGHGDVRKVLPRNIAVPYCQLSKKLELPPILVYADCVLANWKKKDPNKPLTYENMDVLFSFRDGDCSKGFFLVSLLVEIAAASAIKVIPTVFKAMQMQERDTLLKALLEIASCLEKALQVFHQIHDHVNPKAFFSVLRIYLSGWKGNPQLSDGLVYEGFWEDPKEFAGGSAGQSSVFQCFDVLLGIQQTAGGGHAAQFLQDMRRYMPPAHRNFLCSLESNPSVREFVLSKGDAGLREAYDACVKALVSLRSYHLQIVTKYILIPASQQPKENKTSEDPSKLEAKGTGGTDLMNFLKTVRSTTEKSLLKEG
Work on `CC1(C)OC2=C(C(=O)c3ccccc3C2=O)C2OC21` (centres undefined) yielded an IC50 of 4950 nM.
`CC1=C(SCC(NC(=O)CCC(N)C(=O)O)C(=O)NCC(=O)O)C(=O)c2c(O)cccc2C1=O` (centres undefined) gave an IC50 of 880 nM.
`CCCCNC1C2=C(OC(C)(C)C1O)C(=O)c1ccccc1C2=O` (centres undefined) showed an IC50 of 130 nM.
`CC1(C)C=CC2=C(O1)C(=O)c1cc(O)ccc1C2=O` showed an IC50 of 2000 nM.
